Measurements as given in US20070208003A1, “COMPOUNDS AND METHODS FOR TREATING DYSLIPIDEMIA” (priority 2004, published 2007).

System: transgenic mice that express both human CETP and human apolipoprotein A-1
Assay: Assay of plasma lipids in vivo: elevation of HDL cholesterol
Settings: single oral dose 30 mg/kg; at 8 hr; serum HDL cholesterol relative to control; transgenic mice expressing human CETP and human apolipoprotein A-1
Method: Assay of Plasma Lipids In Vivo.
Activity of compounds of this invention in vivo can be determined by the level of elevation of HDL cholesterol relative to control by a given amount of compound in a CETP-containing animal species. A strain of transgenic mice that express both human CETP and human apolipoprotein A-1 (Taconic, Germantown, N.Y.) is used to test compounds of this invention. Test compounds are administered once orally in selected aqueous or oil based vehicles. At various times after dosing, ranging from 4 h to 24 h, blood is obtained. Blood is allowed to clot and serum is obtained by centrifugation. HDL cholesterol levels in the serum is determined by HDL-C plus reagents (Roche/Hitachi, Indianapolis, Ind.) with a clinical chemistry analyzer (Roche/Hitachi, Indianapolis, Ind.). Additional serum lipids can be analyzed by enzymatic methods. Lipids in the VLDL, LDL and HDL fractions are analyzed by enzymatic methods after precipitation or size exclusion chromatography.

In the case of `Cc1nc2c(cc1C(F)(F)F)N(C(=O)OC(C)C)CCCC2N(Cc1cc(C(F)(F)F)cc(C(F)(F)F)c1)c1nnn(C)n1` (racemic) [Example 14], the “% HDL cholesterol increase” value is reported as 91%.
